These results are taken from ChEMBL document CHEMBL1201862, “PubChem BioAssay data set” (2004).

What all share (test): NCI-60 cell line screen, 48 h
Assay [1] relates to ACHN.
In assay [2] the test system is CCRF-CEM.
For assay [3], the system named is SNB-75.
In assay [4] the test system is NCI-H460.
For assay [5], the system named is MDA-N.
Assay [6] relates to A498.
For assay [7], the system named is UO-31.
Assay [8] relates to Malme-3M.
In assay [9] the test system is OVCAR-5.
Assay [10] has as its system PC-3.
Assay [11] has as its system DU-145.
The test system of assay [12] is SF-295.
In assay [13] the test system is A549.
The test system of assay [14] is SF-268.
Assay [15] deals with NCI/ADR-RES.
Assay [16] concerns OVCAR-8.
Assay [17] deals with RXF 393.
The test system of assay [18] is HOP-92.
In assay [19] the test system is OVCAR-4.
The subject of assay [20] is UACC-257.

The structures appear in SMILES notation.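 Tested at 5 concentrations; 48 h exposure; 96-well plates; endpoints linearly interpolated, else capped at highest concentration. Abbreviation: GI50, concentration required for 50% inhibition of growth.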 The source made the active and inactive calls. Rule as the data show it: active = GI50 up to about 1.1 µM and inactive = higher. Where only a bound is given, the exact number is not on record here.

On to `Cc1n(CC(C)C)c2c([n+]1C)C(=O)c1ccccc1C2=O`, for which the GI50 in assay [1] is 0.432 µM (active); in assay [2] it was 0.122 µM (active); in [3], 0.416 µM (active); in assay [4], 0.135 µM (active); in assay [5], 0.166 µM (active); in assay [6] it was 0.32 µM (active). Further, the GI50 was 1.29 µM (inactive) in assay [7]; 0.0957 µM (active) in assay [8]; 0.244 µM (active) in [9]; 0.0348 µM (active) in [10]; 0.203 µM (active) in [11]; 0.415 µM (active) in [12]. Moreover, the GI50 in assay [13] was 0.114 µM (active); in assay [14] it was < 0.0169 µM (active); in assay [15], 2.43 µM (inactive); in assay [16] it was 0.0265 µM (active); in [17] it was 0.811 µM (active); in [18], 0.641 µM (active). The GI50 in [19] is 0.0594 µM (active); in assay [20], 0.0513 µM (active).
With `CC(C)CC(NC(=O)C(COc1ccc([N+](=O)[O-])cc1)Cc1ccccc1)C(=O)Nc1ccccc1` (centres undefined), the GI50 in [1] was 16.8 µM (inactive); in assay [2] it was 7.26 µM (inactive); in assay [3] it was 2.38 µM (inactive); in assay [4], 4.29 µM (inactive); in assay [5], 10.3 µM (inactive); in assay [6] it was 24 µM (inactive). Further, the GI50 in assay [7] was 7 µM (inactive); in assay [8], 5.02 µM (inactive); in [9], 40.3 µM (inactive); in assay [10], 38.7 µM (inactive); in [11], > 100 µM (inactive); in assay [12], 11.2 µM (inactive). Besides, the GI50 in assay [13] is 16.1 µM (inactive); in assay [15], 12.7 µM (inactive); in assay [16] it was 6.98 µM (inactive); in [17], 16.3 µM (inactive); in [18], 13.3 µM (inactive); in [19], 2.35 µM (inactive). Besides, the GI50 in [20] was 25.7 µM (inactive).
Consider `CC(C)(C)OC(=O)NCC(=O)N1CCCN(C(=O)CNC(=O)OC(C)(C)C)CC1`, for which the GI50 in [1], in assay [3], in [4], in assay [5], in assay [6] and in assay [7] was > 100 µM (inactive) throughout. The GI50 in assay [8], in assay [9], in assay [10], in [11], in assay [12] and in assay [13] was > 100 µM (inactive) each time. Moreover, the GI50 in [14], in assay [15], in [16], in [17], in assay [18] and in assay [19] was > 100 µM (inactive) throughout. In addition, the GI50 in assay [20] is > 100 µM (inactive).
Consider `COc1ccc(O)c(/C(C)=N/NC(=S)N(C)C)c1`, for which the GI50 was 13.5 µM (inactive) in assay [1]; 8.93 µM (inactive) in assay [2]; 75.5 µM (inactive) in [3]; 15.6 µM (inactive) in assay [4]; > 73.3 µM (inactive) in assay [5]; > 100 µM (inactive) in assay [6]. Also, the GI50 in assay [7] was 17.7 µM (inactive); in assay [8] it was 71 µM (inactive); in assay [9] it was > 61.9 µM (inactive); in assay [10], > 36.4 µM (inactive); in assay [11], 44 µM (inactive); in assay [12] it was 31.3 µM (inactive). Also, the GI50 in assay [13] was 23.4 µM (inactive); in assay [14], 20.9 µM (inactive); in assay [15], 18 µM (inactive); in assay [16], 33.4 µM (inactive); in assay [17] it was > 100 µM (inactive); in assay [18], > 100 µM (inactive). The GI50 in assay [19] was 2.63 µM (inactive); in assay [20], 63.4 µM (inactive).
For the compound `COC(=O)Nc1nc2cc(NC(=O)c3cccs3)ccc2[nH]1`, the GI50 in assay [1] is > 100 µM (inactive); in [2] it was 31.3 µM (inactive); in assay [3] it was 15.7 µM (inactive); in assay [4] it was 40 µM (inactive); in [5] it was 10.4 µM (inactive); in [6] it was 11.2 µM (inactive). For the same compound, the GI50 in assay [7] was 10.1 µM (inactive); in assay [8] it was 23.4 µM (inactive); in [9], 61.8 µM (inactive); in assay [10], 30.2 µM (inactive); in assay [11], 98.9 µM (inactive); in [12], 29.6 µM (inactive). Also, the GI50 in [13] was 46.9 µM (inactive); in [14], 75.3 µM (inactive); in assay [15] it was 17.9 µM (inactive); in assay [16], 68.7 µM (inactive); in [17], 22.8 µM (inactive); in assay [18], 1.53 µM (inactive). Moreover, the GI50 in assay [19] was 74 µM (inactive).
As for `O=C(c1ccc(F)cc1)c1cccc(C(=O)c2ccc(F)cc2)n1`, the GI50 in assay [1] was 46.2 µM (inactive); in assay [2] it was > 100 µM (inactive); in assay [3], 12.6 µM (inactive); in [4] it was > 100 µM (inactive); in [5], > 100 µM (inactive); in assay [6] it was > 52.7 µM (inactive). Further, the GI50 in assay [7] was 45.3 µM (inactive); in assay [8], > 77.6 µM (inactive); in assay [9], > 95.3 µM (inactive); in assay [10] it was > 100 µM (inactive); in assay [11] it was > 100 µM (inactive); in assay [12], 3.4 µM (inactive). For the same compound, the GI50 is 69.2 µM (inactive) in assay [13]; 24.6 µM (inactive) in assay [14]; 90.8 µM (inactive) in assay [15]; 81.5 µM (inactive) in assay [16]; 5.56 µM (inactive) in assay [17]; 15.8 µM (inactive) in [18]. Further, the GI50 was 71.6 µM (inactive) in assay [19] and 47.4 µM (inactive) in [20].
Turning to `CC1=NCCN=C(C)C1/N=N/c1ccc2[nH]c(C)nc2c1`, the GI50 is 15.6 µM (inactive) in assay [1]; 4.97 µM (inactive) in [2]; 13.2 µM (inactive) in assay [3]; 18.2 µM (inactive) in assay [4]; 10.2 µM (inactive) in [5]; 0.912 µM (active) in assay [6]. Also, the GI50 in assay [8] is 16 µM (inactive); in assay [9], 17.6 µM (inactive); in [10], 6.03 µM (inactive); in assay [11] it was 16.1 µM (inactive); in assay [12], 13.2 µM (inactive); in [13] it was 6.19 µM (inactive). Besides, the GI50 in [14] was 21.2 µM (inactive); in [15], 12 µM (inactive); in assay [16] it was 12.2 µM (inactive); in assay [17], 16.3 µM (inactive); in [18], 4.7 µM (inactive); in assay [19], 12.4 µM (inactive). Besides, in assay [20], the GI50 is 11.3 µM (inactive).
For `Nn1c(-c2ccccc2)nn(C(=O)c2ccccc2)c1=O`, the GI50 in assay [1], in assay [2], in [3], in assay [4], in assay [5] and in [6] was > 100 µM (inactive) in each case. For the same compound, the GI50 in assay [7], in [8], in [9], in assay [10], in assay [11] and in assay [12] was > 100 µM (inactive) throughout. The GI50 in assay [13], in assay [14], in assay [15], in [16], in [17] and in assay [18] was > 100 µM (inactive) throughout. Moreover, the GI50 in assay [19] and in assay [20] was > 100 µM (inactive) throughout.
With `Cc1ccc(S[C@@](C=O)(NC(=O)OCc2ccccc2)C(F)(F)F)cc1`, the GI50 in assay [2] is 23.2 µM (inactive); in assay [3], 22.5 µM (inactive); in assay [4] it was 29.9 µM (inactive); in assay [5] it was 22.8 µM (inactive); in [6] it was 65 µM (inactive); in [7], 15.6 µM (inactive). Besides, the GI50 was 26.4 µM (inactive) in assay [8]; 23.2 µM (inactive) in assay [9]; 18.6 µM (inactive) in assay [10]; 21.7 µM (inactive) in assay [11]; 31 µM (inactive) in assay [12]; 21.2 µM (inactive) in [13]. Further, the GI50 in [14] is 22.6 µM (inactive); in assay [15], 21.4 µM (inactive); in assay [16], 20.7 µM (inactive); in assay [17] it was 14.4 µM (inactive); in assay [18] it was 22.9 µM (inactive); in [19], 44.9 µM (inactive). In addition, the GI50 in [20] is 36.8 µM (inactive).
For `OC[C@H]1O[C@@H](n2cnc3c(S)ncnc32)[C@H](O)[C@@H]1O` [THIOINOSINE], the GI50 in [1] is > 2500 µM (inactive); in [2], 1120 µM (inactive); in assay [3], > 2120 µM (inactive); in assay [4], 2140 µM (inactive); in assay [5], > 2310 µM (inactive); in assay [6], > 2200 µM (inactive). Further, the GI50 in assay [8] was 1860 µM (inactive); in assay [9], > 2500 µM (inactive); in [10], > 2500 µM (inactive); in assay [11] it was 1390 µM (inactive); in assay [12], > 2500 µM (inactive); in [13], > 2500 µM (inactive). Also, the GI50 in assay [14] is > 2500 µM (inactive); in [15] it was 2040 µM (inactive); in assay [16], > 2440 µM (inactive); in assay [17] it was 2460 µM (inactive); in [18] it was 1050 µM (inactive); in assay [19] it was 1520 µM (inactive). Besides, in assay [20], the GI50 is > 2500 µM (inactive).
